Measurements as given in ChEMBL document CHEMBL1159106, “Identification of potential and selective collagenase, gelatinase inhibitors from Crataegus pinnatifida” (Bioorg Med Chem Lett, 2010).

How the values were obtained:
[1] = molecular target: 72 kDa type IV collagenase (Homo sapiens, UniProt P08253); experiment: Inhibition of human rheumatoid synovial fibroblasts gelatinase A after 30 mins by fluorescence plate reader
[2] = Inhibition of collagenase type 4 after 30 mins by fluorescence plate reader
[3] = molecular target: Matrix metalloproteinase-9 (Homo sapiens, UniProt P14780); experiment: Inhibition of human neutrophils gelatinase B after 30 mins by fluorescence plate reader
Matrix metalloproteinase-9, sequence (P14780 whole entry): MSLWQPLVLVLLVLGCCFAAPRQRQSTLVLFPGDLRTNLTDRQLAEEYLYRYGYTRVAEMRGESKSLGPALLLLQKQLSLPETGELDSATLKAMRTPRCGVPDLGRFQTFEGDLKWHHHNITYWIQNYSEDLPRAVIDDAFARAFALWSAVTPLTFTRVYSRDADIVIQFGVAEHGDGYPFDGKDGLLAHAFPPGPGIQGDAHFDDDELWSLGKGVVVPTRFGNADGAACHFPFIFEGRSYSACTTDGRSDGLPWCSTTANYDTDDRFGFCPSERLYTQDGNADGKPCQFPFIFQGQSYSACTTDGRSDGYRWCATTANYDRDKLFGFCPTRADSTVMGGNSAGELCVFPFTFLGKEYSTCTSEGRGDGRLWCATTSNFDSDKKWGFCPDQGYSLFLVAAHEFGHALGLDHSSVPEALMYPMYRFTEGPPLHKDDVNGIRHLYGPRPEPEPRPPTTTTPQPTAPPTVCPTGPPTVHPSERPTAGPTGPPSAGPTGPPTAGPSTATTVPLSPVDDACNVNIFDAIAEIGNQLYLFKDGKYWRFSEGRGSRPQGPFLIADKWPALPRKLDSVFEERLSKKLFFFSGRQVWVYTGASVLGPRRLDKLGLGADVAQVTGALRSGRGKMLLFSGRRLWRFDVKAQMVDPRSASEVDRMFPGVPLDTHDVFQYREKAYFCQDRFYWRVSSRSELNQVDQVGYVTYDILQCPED

72 kDa type IV collagenase, sequence (P08253 whole entry): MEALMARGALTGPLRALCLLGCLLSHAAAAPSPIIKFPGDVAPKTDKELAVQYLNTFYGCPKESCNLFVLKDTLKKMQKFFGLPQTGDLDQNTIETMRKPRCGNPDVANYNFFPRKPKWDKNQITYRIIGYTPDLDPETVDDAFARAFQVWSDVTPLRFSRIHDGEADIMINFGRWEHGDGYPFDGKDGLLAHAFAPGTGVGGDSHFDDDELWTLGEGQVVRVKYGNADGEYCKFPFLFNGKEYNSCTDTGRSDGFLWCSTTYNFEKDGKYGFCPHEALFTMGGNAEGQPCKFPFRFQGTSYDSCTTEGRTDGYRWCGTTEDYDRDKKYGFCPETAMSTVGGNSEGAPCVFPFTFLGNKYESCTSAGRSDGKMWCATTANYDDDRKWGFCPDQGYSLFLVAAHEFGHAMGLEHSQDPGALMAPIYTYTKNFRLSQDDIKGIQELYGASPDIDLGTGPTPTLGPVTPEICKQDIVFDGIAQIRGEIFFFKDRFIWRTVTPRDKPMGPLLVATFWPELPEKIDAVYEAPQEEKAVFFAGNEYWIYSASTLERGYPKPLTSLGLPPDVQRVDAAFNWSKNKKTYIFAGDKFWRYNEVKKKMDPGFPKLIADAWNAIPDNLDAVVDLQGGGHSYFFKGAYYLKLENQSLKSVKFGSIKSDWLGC

For `Oc1cc(O)c2c(c1)O[C@H](c1ccc(O)c(O)c1)[C@H](O)[C@H]2c1c(O)cc2c(c1O)C(c1c(O)cc(O)c3c1O[C@H](c1ccc(O)c(O)c1)[C@H](O)C3)[C@@H](O)[C@@H](c1ccc(O)c(O)c1)O2` (stereo not given in full), the IC50 [1] was 0.4 µM, the IC50 [2] was 0.34 µM and the IC50 [3] was 2.3 µM.

For `Oc1cc(O)c2c(c1)O[C@H](c1ccc(O)c(O)c1)[C@H](O)[C@H]2c1c(O)cc(O)c2c1O[C@H](c1ccc(O)c(O)c1)[C@H](O)[C@H]2c1c(O)cc2c(c1O)C[C@@H](O)[C@@H](c1ccc(O)c(O)c1)O2`, the IC50 [1] was 12.4 µM, the IC50 [2] was 0.98 µM and the IC50 [3] was 27.3 µM.

With `Oc1cc(O)c2c(c1)O[C@H](c1ccc(O)c(O)c1)[C@H](O)[C@H]2c1c(O)cc(O)c2c1O[C@H](c1ccc(O)c(O)c1)[C@H](O)[C@H]2c1c(O)cc(O)c2c1O[C@H](c1ccc(O)c(O)c1)[C@H](O)[C@H]2c1c(O)cc(O)c2c1O[C@H](c1ccc(O)c(O)c1)[C@H](O)[C@H]2c1c(O)cc(O)c2c1O[C@H](c1ccc(O)c(O)c1)[C@H](O)C2` the IC50 [1] was 43.2 µM, the IC50 [2] was 21.4 µM and the IC50 [3] was 39.2 µM.

`[H]/N=C(\N/C(=N/[H])NCCCCCCNC(=N)NC(=N)Nc1ccc(Cl)cc1)Nc1ccc(Cl)cc1` [CHLORHEXIDINE] gave an IC50 [1] of 7.63 µM and an IC50 [3] of 7.63 µM.

In the case of `CC(C)C[C@H](NP(=O)(O)O[C@@H]1O[C@@H](C)[C@H](O)[C@@H](O)[C@H]1O)C(=O)N[C@@H](Cc1c[nH]c2ccccc12)C(=O)O` [PHOSPHORAMIDON], the IC50 [2] is reported as 7.63 µM.

In the case of `Oc1cc(O)c2c(c1)O[C@H](c1ccc(O)c(O)c1)[C@H](O)[C@H]2c1c(O)cc(O)c2c1O[C@H](c1ccc(O)c(O)c1)[C@H](O)[C@H]2c1c(O)cc(O)c2c1O[C@H](c1ccc(O)c(O)c1)[C@H](O)C2` [PROCYANIDIN C1], the IC50 [1] is reported as 31.4 µM, the IC50 [2] is reported as 11.3 µM and the IC50 [3] is reported as 53.2 µM.
